Test results from patent US12024504B2, “1-methyl-1H-pyrazol-3-yl derivatives for use in the treatment of neovascular diseases” (EXONATE LIMITED, priority 2021, dated 2024).

Legend:
VEGF-A165a isoform = assay: VEGF isoform specific ELISA in retinal pigmented epithelial cells; format: cell-based, human; conditions: FIG. 5
Protocol: 96-well clear microplate (high sensitivity thermo immulon or costar 9018) were coated with 100 μL of 10 μg/mL VEGFxxxb or 0.25 μg/mL anti-hVEGF165a per well. The plate was sealed with parafilm and incubated overnight on the shaker at room temp. Each well was aspirated and washed with Wash Buffer (200 μL PBS-Tween 0.05%), […] for a total of three washes. After the last wash, remaining Wash Buffer was removed by inverting the plate and blotting it against clean paper towels. Plates were blocked by adding 100 μL of Reagent Diluent (1% BSA/PBS) to each well and incubated at room temp on a shaker for 2 hours. The aspiration/wash step was repeated. 100 μL of standards or samples in 1% BSA/PBS were added to each well, covered with parafilm and incubated 2 hours at room temperature. The aspiration/wash was repeated and 100 μL of 100 ng/mL of Detection Antibody (BAF293), diluted in Reagent Diluent, was added to each well which were covered with parafilm and incubated 2 hours at room temperature. The aspiration/wash was repeated and 100 μL of the working dilution of Streptavidin-HRP (1:200 dilution) was added to each well. […] The optical density of each well was measured immediately, using a microplate reader set to 450 nm.
To determine whether compound 1 could switch splicing of VEGF isoforms, VEGF was measured in retinal pigmented epithelial cells by isoform specific ELISA.

VEGF-A165b and panVEGF = assay: STZ model of diabetes, retinal VEGF immunoblotting; format: in vivo, Norway Brown rats; conditions: diabetic rats, bidaily eye drops for 28 days, Western blot
Protocol: To determine whether compound 1 could effectively switch the splicing of VEGF in a model of diabetes we used the STZ model of diabetes in Norway Brown rats. Diabetic animals were treated with twice daily eye drops of compound 1 for four weeks and killed, and the retina dissected. Protein was extracted and subjected to immunoblotting for VEGF-A165b and panVEGF.

[1] = Non-human primate pharmacokinetic study (eye drops); format: in vivo, Cynomolgus monkeys
Protocol: Non-human primate pharmacokinetic study Cynomolgus monkeys were treated bidaily for 20 days with 35 μL eye drops of compound 1 at 0.5 mg/mL, 1.0 mg/mL or 1.5 mg/ml as indicated, in the eye drop formulation containing 7% poly-oxyl-40-stearate and 4% dextrose in PBS. Blood and aqueous samples were collected 1 h, 4 h, 8 h, 10 h and 14 h after eye drop administration on day 1 and at the end of the study. 1 h after the final eye drop on day 21, the animals were euthanised and ocular tissues and blood were collected. The retina was dissected from the choroid and sclera, incisions made, and laid out flat. Retina, RPE/choroid and sclera eye compartments were dissected into 7 different areas. All samples were weighed. Compound was extracted by reverse phase extraction from the retina and choroid/sclera samples and the plasma as above, and amount determined by mass spectrometry in different areas of the eye and in the blood. Amounts per milligram of tissue or nM for aqueous and blood were calculated for each sample, and averaged.
To determine whether compound 1 could penetrate into the retina of primates we dosed cynomologous monkeys with 0.5, 1.0 or 1.5 mg/mL compound 1 twice a day for 21 days. […] Aqueous taps and plasma samples were taken during the treatment and compound 1 measured in the fluid. […] To determine if these doses were sufficient to inhibit angiogenic VEGF-A isoform expression, retinal tissue was subjected to immunoblotting using pan-VEGF or VEGF-A165b antibodies.

Cn1ccc(CN2CCN(c3ccc(C(F)(F)F)cc3NC(=O)c3ccc(C4CCOCC4)o3)CC2)n1 [Compound 1, N-(2-(4-((1-methyl-1H-pyrazol-3-yl)methyl)piperazin-1-yl)-5-(trifluoromethyl)phenyl)-5-(tetrahydro-2H-pyran-4-yl)furan-2-carboxamide]
Expression of pro-angiogenic VEGF-A165a isoform (VEGF-A165a isoform): reduces expression of the pro-angiogenic VEGF-A165a isoform in a dose dependent manner | Proportion of VEGF-A165b to total VEGF (VEGF-A165b and panVEGF): increased | Total VEGF in retina (VEGF-A165b and panVEGF): total VEGF is reduced | VEGF-A165b in retina (VEGF-A165b and panVEGF): VEGF-A165b is increased | melting point: 148 to 150 °C | half-life ([1]; cynomolgus, cynomolgus monkey, aqueous humour, topical or ocular, monkey, after administration of 1.5 mg/mL eye drop): 2 h | Concentrations in retina, choroid, vitreous and other tissues of the eye ([1]; monkey, 0.5, 1.0 or 1.5 mg/mL twice a day for 21 days): significant concentrations | Concentrations in aqueous taps and plasma samples ([1]; monkey, all three doses (0.5, 1.0, 1.5 mg/mL)): Significant concentrations were seen at all three doses
